Source: ChEMBL document CHEMBL1142215, “Site-specific reduction of oxidative and lipid metabolism in adipose tissue of 3'-azido-3'-deoxythymidine-treated rats” (2007)
Calls of active or inactive are those of the source. The rule behind the calls is not given here.

Legend:
Rattus norvegicus [1] = test: Increase in body weight in lean Wistar rat at 70 mg/kg/day after 4 weeks; assay type: functional
Rattus norvegicus [2] = test: Increase in body weight in cafteria-fed Wistar rat at 70 mg/kg/day after 4 weeks; assay type: functional
Rattus norvegicus [3] = test: Increase in triglyceride level in lean Wistar rat at 70 mg/kg/day relative to control; assay type: functional
Rattus norvegicus [4] = test: Increase in triglyceride level in cafteria-fed Wistar rat at 70 mg/kg/day relative to control; assay type: functional
Rattus norvegicus [5] = test: Effect on HDL cholesterol level in lean Wistar rat at 70 mg/kg/day relative to control; assay type: functional
Rattus norvegicus [6] = test: Effect on HDL cholesterol level in cafteria-fed Wistar rat at 70 mg/kg/day relative to control; assay type: functional
Rattus norvegicus [7] = test: Effect on LDL cholesterol level in lean Wistar rat at 70 mg/kg/day relative to control; assay type: functional
Rattus norvegicus [8] = test: Effect on LDL cholesterol level in cafteria-fed Wistar rat at 70 mg/kg/day relative to control; assay type: functional
Rattus norvegicus [9] = test: Increase in cellularity in cafteria-fed Wistar rat inguinal tissue assessed as DNA content at 70 mg/kg/day; assay type: functional
Rattus norvegicus [10] = test: Decrease in inguinal adipocyte size in cafteria-fed Wistar rat at 70 mg/kg/day; assay type: functional
Rattus norvegicus [11] = test: Decrease in epididymal adipocyte size in cafteria-fed Wistar rat at 70 mg/kg/day; assay type: functional, organism-based
Rattus norvegicus [12] = test: Decrease in cytochrome c oxidase activity in lean Wistar rat inguinal adipose tissue at 70 mg/kg/day by DNA quantification assay; assay type: organism-based
Rattus norvegicus [13] = test: Decrease in cytochrome c oxidase activity in cafteria-fed Wistar rat inguinal adipose tissue at 70 mg/kg/day by DNA quantification assay; assay type: organism-based
[14] = molecular target: Fatty acid synthase (Rattus norvegicus) (UniProt P12785); test: Decrease in fatty acid synthase activity in lean Wistar rat inguinal adipose tissue assessed at 70 mg/kg/day by DNA quantification assay; assay type: organism-based
Fatty acid synthase (Rattus norvegicus), sequence (P12785 whole entry): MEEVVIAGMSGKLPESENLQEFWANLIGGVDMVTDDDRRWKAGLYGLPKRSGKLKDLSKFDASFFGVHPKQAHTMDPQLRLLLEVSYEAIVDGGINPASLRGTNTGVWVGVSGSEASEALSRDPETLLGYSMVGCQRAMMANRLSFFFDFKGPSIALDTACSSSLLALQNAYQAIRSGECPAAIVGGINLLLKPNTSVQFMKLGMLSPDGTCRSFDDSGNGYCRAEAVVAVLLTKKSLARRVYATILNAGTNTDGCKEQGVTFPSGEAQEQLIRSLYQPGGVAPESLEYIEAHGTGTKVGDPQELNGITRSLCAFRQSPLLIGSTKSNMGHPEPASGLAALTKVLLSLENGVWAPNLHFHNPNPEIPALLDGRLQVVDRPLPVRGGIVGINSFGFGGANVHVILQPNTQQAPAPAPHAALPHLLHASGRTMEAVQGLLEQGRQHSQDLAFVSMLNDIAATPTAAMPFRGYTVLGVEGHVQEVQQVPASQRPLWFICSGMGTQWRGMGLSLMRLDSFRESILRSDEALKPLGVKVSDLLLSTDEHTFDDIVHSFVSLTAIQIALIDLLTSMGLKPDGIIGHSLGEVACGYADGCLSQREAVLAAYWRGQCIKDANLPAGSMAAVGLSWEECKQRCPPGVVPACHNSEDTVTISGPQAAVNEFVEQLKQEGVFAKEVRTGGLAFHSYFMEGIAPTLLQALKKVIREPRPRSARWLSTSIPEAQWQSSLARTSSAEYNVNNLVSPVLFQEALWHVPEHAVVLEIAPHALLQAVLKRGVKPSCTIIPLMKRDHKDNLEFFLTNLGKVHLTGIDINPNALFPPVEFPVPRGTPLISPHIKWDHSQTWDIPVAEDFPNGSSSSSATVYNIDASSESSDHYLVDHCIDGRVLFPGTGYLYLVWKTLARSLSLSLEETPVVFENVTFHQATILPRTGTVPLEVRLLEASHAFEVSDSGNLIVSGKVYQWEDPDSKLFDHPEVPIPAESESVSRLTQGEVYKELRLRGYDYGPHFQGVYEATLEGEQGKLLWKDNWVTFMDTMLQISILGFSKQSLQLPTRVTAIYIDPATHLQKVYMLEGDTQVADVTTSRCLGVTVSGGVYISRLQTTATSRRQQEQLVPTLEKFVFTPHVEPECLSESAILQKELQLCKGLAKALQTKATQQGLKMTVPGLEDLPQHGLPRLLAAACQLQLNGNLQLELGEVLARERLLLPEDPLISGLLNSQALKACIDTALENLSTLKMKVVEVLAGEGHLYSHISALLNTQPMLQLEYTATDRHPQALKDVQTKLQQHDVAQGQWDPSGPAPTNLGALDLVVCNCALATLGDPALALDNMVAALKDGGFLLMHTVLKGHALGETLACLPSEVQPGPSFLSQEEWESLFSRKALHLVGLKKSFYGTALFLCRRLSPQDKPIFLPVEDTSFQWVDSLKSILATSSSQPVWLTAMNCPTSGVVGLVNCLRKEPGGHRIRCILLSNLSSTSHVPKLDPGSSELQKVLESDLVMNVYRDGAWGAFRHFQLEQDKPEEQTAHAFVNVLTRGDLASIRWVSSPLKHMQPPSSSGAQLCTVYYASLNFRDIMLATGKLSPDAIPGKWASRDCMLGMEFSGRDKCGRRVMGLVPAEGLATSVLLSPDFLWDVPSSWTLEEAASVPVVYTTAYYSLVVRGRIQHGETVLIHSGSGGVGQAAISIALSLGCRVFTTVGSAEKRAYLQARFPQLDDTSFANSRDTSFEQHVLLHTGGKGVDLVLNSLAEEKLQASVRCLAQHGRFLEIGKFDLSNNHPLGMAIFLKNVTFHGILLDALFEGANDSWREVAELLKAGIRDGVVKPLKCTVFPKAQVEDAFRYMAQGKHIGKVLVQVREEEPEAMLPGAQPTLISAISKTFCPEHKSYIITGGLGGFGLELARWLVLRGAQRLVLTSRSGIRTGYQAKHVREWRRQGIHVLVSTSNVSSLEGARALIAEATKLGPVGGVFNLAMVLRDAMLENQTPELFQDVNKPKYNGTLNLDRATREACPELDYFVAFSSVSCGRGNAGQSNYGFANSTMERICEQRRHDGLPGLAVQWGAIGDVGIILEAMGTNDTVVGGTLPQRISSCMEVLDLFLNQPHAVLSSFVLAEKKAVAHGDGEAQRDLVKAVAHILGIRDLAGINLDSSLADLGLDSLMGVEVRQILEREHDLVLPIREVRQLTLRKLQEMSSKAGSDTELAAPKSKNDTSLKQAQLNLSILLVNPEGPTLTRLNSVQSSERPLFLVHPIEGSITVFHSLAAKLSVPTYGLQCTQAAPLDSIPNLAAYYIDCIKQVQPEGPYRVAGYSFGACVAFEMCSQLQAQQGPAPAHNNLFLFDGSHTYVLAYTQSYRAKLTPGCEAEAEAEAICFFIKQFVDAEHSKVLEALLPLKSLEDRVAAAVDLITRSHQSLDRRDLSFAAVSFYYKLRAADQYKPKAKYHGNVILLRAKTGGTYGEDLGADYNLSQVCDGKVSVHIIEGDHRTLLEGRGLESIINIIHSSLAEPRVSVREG

[15] = molecular target: Fatty acid synthase (Rattus norvegicus) (UniProt P12785); test: Decrease in fatty acid synthase activity in Wistar cafteria-fed rat inguinal adipose tissue at 70 mg/kg/day by DNA quantification assay; assay type: organism-based
Rattus norvegicus [16] = test: Increase in AMPK phosphorylation level in rat inguinal adipose cells at 70 mg/kg/day; assay type: organism-based
Rattus norvegicus [17] = test: Effect on AMPK phosphorylation level in rat epididymal adipose cell at 70 mg/kg/day; assay type: organism-based
[18] = molecular target: Fatty acid synthase (Rattus norvegicus) (UniProt P12785); test: Decrease in fatty acid synthase activity in lean Wistar rat epididymal adipose tissue assessed at 70 mg/kg/day by DNA quantification assay; assay type: organism-based
[19] = molecular target: Fatty acid synthase (Rattus norvegicus) (UniProt P12785); test: Decrease in fatty acid synthase activity in Wistar cafteria-fed rat epididymal adipose tissue at 70 mg/kg/day by DNA quantification assay; assay type: organism-based

Activity [14]: 0.72 U/mg
Activity [15]: 0.55 U/mg
Activity [18]: inactive
Activity [19]: inactive
Compound: Cc1cn([C@H]2C[C@H](N=[N+]=[N-])[C@@H](CO)O2)c(=O)[nH]c1=O [ZIDOVUDINE]
Activity (Rattus norvegicus [1]): 401 g
Activity (Rattus norvegicus [2]): 443 g
Activity (Rattus norvegicus [3]): 2.11 mM
Activity (Rattus norvegicus [4]): 1.96 mM
Activity (Rattus norvegicus [5]): 0.43 mM
Activity (Rattus norvegicus [6]): 0.32 mM
Activity (Rattus norvegicus [7]): 0.27 mM
Activity (Rattus norvegicus [8]): 0.6 mM
Activity (Rattus norvegicus [9]): 625 µg
Activity (Rattus norvegicus [10]): 2082 um2
Activity (Rattus norvegicus [11]): inactive
Activity (Rattus norvegicus [12]): 6.61 U/mg
Activity (Rattus norvegicus [13]): 6.43 U/mg
Activity (Rattus norvegicus [16]): Active
Activity (Rattus norvegicus [17]): Active
